According to US9738634B2, “Heterocyclic amide compound and herbicide” (SYNGENTA PARTICIPATIONS AG, priority 2013, dated 2017):

Legend:
Format in all cases: in vivo
Conditions in all cases: treatment dosage 320 g/ha
[1] = test system: chickweed; experiment: Test Example 4: weedkilling efficacy by foliar treatment; N: chickweed
How it was run: (§1)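 Seeds are spot-sown into sterilized diluvial soil and covered with about 1.5 cm of soil. After 14 days' greenhouse growth at 25 to 30° C, plants are sprayed on stems and leaves with diluted emulsion at the stated g/ha rate, then scored at 3 weeks.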

[2] = test system: bulrush; experiment: Test Example 1: weedkilling efficacy, preemergent weed treatment in the submerged state; B: bulrush
How it was run: (§2)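 Pots of alluvial soil flooded 4 cm deep, sown with barnyard grass, bulrush and oval-leafed pondweed and transplanted with 2.5-leaf rice. Emulsified compound applied to the water surface on sowing day at stated g/ha; greenhouse 25–30 °C, effects assessed 3 weeks after treatment.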

[3] = test system: Indian mallow; experiment: Test Example 4: weedkilling efficacy by foliar treatment; K: Indian mallow
How it was run: as §1

[4] = test system: green foxtail; experiment: Test Example 4: weedkilling efficacy by foliar treatment; E: green foxtail
How it was run: as §1

[5] = test system: directly sown rice; experiment: Test Example 3: soil treatment, effect on crop; b: directly sown rice
How it was run: (§3)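 Crop and weed responses were judged three weeks after a uniform surface spray of the water-diluted emulsion at the given g/ha rate. Seeds sat beneath about 1.5 cm of sterilized diluvial soil, and boxes stood in a greenhouse at 25 to 30° C.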

[6] = test system: barnyard grass; experiment: Test Example 4: weedkilling efficacy by foliar treatment; F: barnyard grass
How it was run: as §1

[7] = test system: Italian ryegrass; experiment: Test Example 3: weedkilling efficacy through soil treatment; I: Italian ryegrass
How it was run: as §3

[8] = test system: oval-leafed pondweed; experiment: Test Example 1: weedkilling efficacy, preemergent weed treatment in the submerged state; C: oval-leafed pondweed
How it was run: as §2

[9] = test system: wild oat; experiment: Test Example 3: weedkilling efficacy through soil treatment; G: wild oat
How it was run: as §3

[10] = test system: barnyard grass; experiment: Test Example 3: weedkilling efficacy through soil treatment; F: barnyard grass
How it was run: as §3

[11] = test system: wheat; experiment: Test Example 4: foliar treatment, effect on crop; e: wheat
How it was run: as §1

[12] = test system: beet; experiment: Test Example 3: soil treatment, effect on crop; f: beet
How it was run: as §3

[13] = test system: rapeseed; experiment: Test Example 4: foliar treatment, effect on crop; g: rapeseed
How it was run: as §1

[14] = test system: common wind-grass; experiment: Test Example 4: weedkilling efficacy by foliar treatment; J: common wind-grass
How it was run: as §1

[15] = test system: beet; experiment: Test Example 4: foliar treatment, effect on crop; f: beet
How it was run: as §1

[16] = test system: catchweed; experiment: Test Example 4: weedkilling efficacy by foliar treatment; O: catchweed
How it was run: as §1

[17] = test system: crabgrass; experiment: Test Example 3: weedkilling efficacy through soil treatment; D: crabgrass
How it was run: as §3

[18] = test system: fig-leafed goosefoot; experiment: Test Example 3: weedkilling efficacy through soil treatment; M: fig-leafed goosefoot
How it was run: as §3

[19] = test system: redroot pigweed; experiment: Test Example 4: weedkilling efficacy by foliar treatment; L: redroot pigweed
How it was run: as §1

[20] = test system: wheat; experiment: Test Example 3: soil treatment, effect on crop; e: wheat
How it was run: as §3

[21] = test system: common wind-grass; experiment: Test Example 3: weedkilling efficacy through soil treatment; J: common wind-grass
How it was run: as §3

[22] = test system: corn; experiment: Test Example 3: soil treatment, effect on crop; c: corn
How it was run: as §3

[23] = test system: black-grass; experiment: Test Example 3: weedkilling efficacy through soil treatment; H: black-grass
How it was run: as §3

[24] = test system: crabgrass; experiment: Test Example 4: weedkilling efficacy by foliar treatment; D: crabgrass
How it was run: as §1

[25] = test system: oval-leafed pondweed; experiment: Test Example 2: weedkilling efficacy, growth period weed treatment in the submerged state; C: oval-leafed pondweed
How it was run: (§4)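 Barnyard grass, bulrush and oval-leafed pondweed sown in alluvial soil under 4 cm flooding, greenhouse 25 to 30° C. At 1-2 leaf stage, water-diluted emulsion applied to the water surface at stated g/ha dosages; effects scored 3 weeks later.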

[26] = test system: directly sown rice; experiment: Test Example 4: foliar treatment, effect on crop; b: directly sown rice
How it was run: as §1

[27] = test system: corn; experiment: Test Example 4: foliar treatment, effect on crop; c: corn
How it was run: as §1

[28] = test system: birds-eye speedwell; experiment: Test Example 4: weedkilling efficacy by foliar treatment; p: birds-eye speedwell
How it was run: as §1

[29] = test system: catchweed; experiment: Test Example 3: weedkilling efficacy through soil treatment; O: catchweed
How it was run: as §3

[30] = test system: soybean; experiment: Test Example 3: soil treatment, effect on crop; d: soybean
How it was run: as §3

[31] = test system: Italian ryegrass; experiment: Test Example 4: weedkilling efficacy by foliar treatment; I: Italian ryegrass
How it was run: as §1

[32] = test system: transplanted rice; experiment: Test Example 1: preemergent weed treatment in the submerged state, effect on crop; a: transplanted rice
How it was run: as §2

[33] = test system: green foxtail; experiment: Test Example 3: weedkilling efficacy through soil treatment; E: green foxtail
How it was run: as §3

[34] = test system: barnyard grass; experiment: Test Example 1: weedkilling efficacy, preemergent weed treatment in the submerged state; A: barnyard grass
How it was run: as §2

[35] = test system: rapeseed; experiment: Test Example 3: soil treatment, effect on crop; g: rapeseed
How it was run: as §3

[36] = test system: birds-eye speedwell; experiment: Test Example 3: weedkilling efficacy through soil treatment; p: birds-eye speedwell
How it was run: as §3

[37] = test system: barnyard grass; experiment: Test Example 2: weedkilling efficacy, growth period weed treatment in the submerged state; A: barnyard grass
How it was run: as §4

[38] = test system: soybean; experiment: Test Example 4: foliar treatment, effect on crop; d: soybean
How it was run: as §1

[39] = test system: black-grass; experiment: Test Example 4: weedkilling efficacy by foliar treatment; H: black-grass
How it was run: as §1

[40] = test system: chickweed; experiment: Test Example 3: weedkilling efficacy through soil treatment; N: chickweed
How it was run: as §3

[41] = test system: wild oat; experiment: Test Example 4: weedkilling efficacy by foliar treatment; G: wild oat
How it was run: as §1

[42] = test system: Indian mallow; experiment: Test Example 3: weedkilling efficacy through soil treatment; K: Indian mallow
How it was run: as §3

[43] = test system: fig-leafed goosefoot; experiment: Test Example 4: weedkilling efficacy by foliar treatment; M: fig-leafed goosefoot
How it was run: as §1

[44] = test system: redroot pigweed; experiment: Test Example 3: weedkilling efficacy through soil treatment; L: redroot pigweed
How it was run: as §3

Q: How did the “N (chickweed) weedkilling efficacy grade” value [1] turn out when `CC1=C(c2ccccc2)C(=O)N(C(C)(C)C(=O)Nc2ccc3ccccc3n2)CO1` [B-1-18] was run?
A: 3 (weed kill ratio 40% or more, less than 70%)

Q: What about the “B (bulrush) weedkilling efficacy grade” value [2] of the same molecule?
A: 5 (weed kill ratio 90% or more, (practically complete withering))

Q: What about the “K (Indian mallow) weedkilling efficacy grade” value [3] of the same molecule?
A: 3 (weed kill ratio 40% or more, less than 70%)

Q: And the “E (green foxtail) weedkilling efficacy grade” value [4]?
A: 3 (weed kill ratio 40% or more, less than 70%)

Q: And the “b (directly sown rice) effect on crop grade” value [5]?
A: 0 (weed kill ratio 5% or less (practically no effect))

Q: And the “F (barnyard grass) weedkilling efficacy grade” value [6]?
A: 2 (weed kill ratio 20% or more, less than 40%)

Q: And the “I (Italian ryegrass) weedkilling efficacy grade” value [7]?
A: 2 (weed kill ratio 20% or more, less than 40%)

Q: What about the “C (oval-leafed pondweed) weedkilling efficacy grade” value [8] of the same molecule?
A: 5 (weed kill ratio 90% or more, (practically complete withering))

Q: What about the “G (wild oat) weedkilling efficacy grade” value [9] of the same molecule?
A: 0 (weed kill ratio 5% or less (practically no effect))

Q: And the “F (barnyard grass) weedkilling efficacy grade” value [10]?
A: 1 (weed kill ratio 5% or more, less than 20%)

Q: What about the “e (wheat) effect on crop grade” value [11] of the same molecule?
A: 0 (weed kill ratio 5% or less (practically no effect))

Q: What about the “f (beet) effect on crop grade” value [12] of the same molecule?
A: 0 (weed kill ratio 5% or less (practically no effect))

Q: What about the “g (rapeseed) effect on crop grade” value [13] of the same molecule?
A: 3 (weed kill ratio 40% or more, less than 70%)

Q: What about the “J (common wind-grass) weedkilling efficacy grade” value [14] of the same molecule?
A: 3 (weed kill ratio 40% or more, less than 70%)

Q: And the “f (beet) effect on crop grade” value [15]?
A: 0 (weed kill ratio 5% or less (practically no effect))

Q: And the “O (catchweed) weedkilling efficacy grade” value [16]?
A: 4 (weed kill ratio 70% or more, less than 90%)

Q: What about the “D (crabgrass) weedkilling efficacy grade” value [17] of the same molecule?
A: 3 (weed kill ratio 40% or more, less than 70%)

Q: And the “M (fig-leafed goosefoot) weedkilling efficacy grade” value [18]?
A: 0 (weed kill ratio 5% or less (practically no effect))

Q: What about the “L (redroot pigweed) weedkilling efficacy grade” value [19] of the same molecule?
A: 2 (weed kill ratio 20% or more, less than 40%)

Q: What about the “e (wheat) effect on crop grade” value [20] of the same molecule?
A: 0 (weed kill ratio 5% or less (practically no effect))

Q: What about the “J (common wind-grass) weedkilling efficacy grade” value [21] of the same molecule?
A: 5 (weed kill ratio 90% or more, (practically complete withering))

Q: What about the “c (corn) effect on crop grade” value [22] of the same molecule?
A: 0 (weed kill ratio 5% or less (practically no effect))

Q: And the “H (black-grass) weedkilling efficacy grade” value [23]?
A: 2 (weed kill ratio 20% or more, less than 40%)

Q: And the “D (crabgrass) weedkilling efficacy grade” value [24]?
A: 2 (weed kill ratio 20% or more, less than 40%)

Q: What about the “C (oval-leafed pondweed) weedkilling efficacy grade” value [25] of the same molecule?
A: 5 (weed kill ratio 90% or more, (practically complete withering))

Q: And the “b (directly sown rice) effect on crop grade” value [26]?
A: 0 (weed kill ratio 5% or less (practically no effect))

Q: And the “c (corn) effect on crop grade” value [27]?
A: 1 (weed kill ratio 5% or more, less than 20%)

Q: And the “P (birds-eye speedwell) weedkilling efficacy grade” value [28]?
A: 4 (weed kill ratio 70% or more, less than 90%)

Q: What about the “O (catchweed) weedkilling efficacy grade” value [29] of the same molecule?
A: 0 (weed kill ratio 5% or less (practically no effect))

Q: And the “d (soybean) effect on crop grade” value [30]?
A: 0 (weed kill ratio 5% or less (practically no effect))

Q: And the “I (Italian ryegrass) weedkilling efficacy grade” value [31]?
A: 1 (weed kill ratio 5% or more, less than 20%)

Q: What about the “a (transplanted rice) effect on crop grade” value [32] of the same molecule?
A: 0 (weed kill ratio 5% or less (practically no effect))

Q: What about the “E (green foxtail) weedkilling efficacy grade” value [33] of the same molecule?
A: 4 (weed kill ratio 70% or more, less than 90%)

Q: And the “A (barnyard grass) weedkilling efficacy grade” value [34]?
A: 5 (weed kill ratio 90% or more, (practically complete withering))

Q: And the “g (rapeseed) effect on crop grade” value [35]?
A: 0 (weed kill ratio 5% or less (practically no effect))

Q: What about the “P (birds-eye speedwell) weedkilling efficacy grade” value [36] of the same molecule?
A: 0 (weed kill ratio 5% or less (practically no effect))

Q: And the “A (barnyard grass) weedkilling efficacy grade” value [37]?
A: 4 (weed kill ratio 70% or more, less than 90%)

Q: What about the “d (soybean) effect on crop grade” value [38] of the same molecule?
A: 0 (weed kill ratio 5% or less (practically no effect))

Q: What about the “H (black-grass) weedkilling efficacy grade” value [39] of the same molecule?
A: 1 (weed kill ratio 5% or more, less than 20%)

Q: And the “N (chickweed) weedkilling efficacy grade” value [40]?
A: 0 (weed kill ratio 5% or less (practically no effect))

Q: And the “G (wild oat) weedkilling efficacy grade” value [41]?
A: 0 (weed kill ratio 5% or less (practically no effect))

Q: What about the “K (Indian mallow) weedkilling efficacy grade” value [42] of the same molecule?
A: 0 (weed kill ratio 5% or less (practically no effect))

Q: And the “M (fig-leafed goosefoot) weedkilling efficacy grade” value [43]?
A: 3 (weed kill ratio 40% or more, less than 70%)

Q: And the “L (redroot pigweed) weedkilling efficacy grade” value [44]?
A: 0 (weed kill ratio 5% or less (practically no effect))
